Experimental data taken from publication PMC7265341, “Quantifying CDK inhibitor selectivity in live cells” (Nature Communications, 2020).
Read-outs that look alike come from different tables or passages of the source.

Key:
[1] = target: CDK17/Cyclin Y (Homo sapiens, UniProt Q00537); assay: NanoBRET live-cell target engagement, CDK17-NanoLuc/Cyclin Y in HEK-293; type: binding; details: CDK17/Y, read-out: Inhibition at 10µM (%)
[2] = target: CDK5/CDK5R1 (Homo sapiens, UniProt Q00535); assay: NanoBRET live-cell target engagement, CDK5-NanoLuc/CDK5R1 in HEK-293; type: binding; details: CDK5/CDK5R1, read-out: Inhibition at 10µM (%)
[3] = target: CDK6/Cyclin D1 (Homo sapiens, UniProt Q00534); assay: NanoBRET live-cell target engagement, NanoLuc-CDK6/Cyclin D1 in HEK-293; type: binding; details: for inhibition at 10 µM: read-out: Inhibition at 10µM (%)
[4] = target: CDK19/Cyclin C (Homo sapiens, UniProt Q9BWU1); assay: NanoBRET live-cell target engagement, NanoLuc-CDK19/Cyclin C in HEK-293; details: read-out: Inhibition at 10µM (%), CDK19/C
[5] = target: CDK8/Cyclin C (Homo sapiens, UniProt P49336); assay: NanoBRET live-cell target engagement, NanoLuc-CDK8/Cyclin C in HEK-293; type: binding; details: CDK8/C, read-out: Inhibition at 10µM (%)
[6] = target: CDK12/Cyclin K (Homo sapiens, UniProt Q9NYV4); assay: NanoBRET live-cell target engagement, CDK12-NanoLuc/Cyclin K in HEK-293; type: binding
[7] = target: CDK16/Cyclin Y (Homo sapiens, UniProt Q00536); assay: NanoBRET live-cell target engagement, CDK16-NanoLuc/Cyclin Y in HEK-293; type: binding; details: CDK16/Y; for IC50: read-out: IC50; for inhibition at 10 µM: read-out: Inhibition at 10µM (%)
[8] = target: CDK14/Cyclin Y (Homo sapiens, UniProt O94921); assay: NanoBRET live-cell target engagement, CDK14-NanoLuc/Cyclin Y in HEK-293; type: binding; details: CDK14/Y, read-out: Inhibition at 10µM (%)
[9] = target: CDK9/Cyclin K (Homo sapiens, UniProt P50750); assay: NanoBRET live-cell target engagement, NanoLuc-CDK9/Cyclin K in HEK-293; type: binding; details: CDK9/K, read-out: Inhibition at 10µM (%)
[10] = target: CDK1/Cyclin E1 (Homo sapiens, UniProt P06493); assay: NanoBRET live-cell target engagement, CDK1-NanoLuc/Cyclin E1 in HEK-293; type: binding; details: CDK1/E1, read-out: Inhibition at 10µM (%)
[11] = target: CDK4/Cyclin D1 (Homo sapiens, UniProt P11802); assay: NanoBRET live-cell target engagement, NanoLuc-CDK4/Cyclin D1 in HEK-293; type: binding; details: CDK4/D1, read-out: Inhibition at 10µM (%)
[12] = target: CDK18/Cyclin Y (Homo sapiens, UniProt Q07002); assay: NanoBRET live-cell target engagement, CDK18-NanoLuc/Cyclin Y in HEK-293; type: binding; details: CDK18/Y, read-out: Inhibition at 10µM (%)
[13] = target: CDK15/Cyclin Y (Homo sapiens, UniProt Q96Q40); assay: NanoBRET live-cell target engagement, NanoLuc-CDK15/Cyclin Y in HEK-293; type: binding; details: CDK15/Y; for IC50: read-out: IC50; for inhibition at 10 µM: read-out: Inhibition at 10µM (%)
[14] = target: CDK2/Cyclin E1 (Homo sapiens, UniProt P24941); assay: NanoBRET live-cell target engagement, CDK2-NanoLuc/Cyclin E1 in HEK-293; type: binding; details: CDK2/E1, read-out: Inhibition at 10µM (%)
[15] = target: CDK13/Cyclin K (Homo sapiens, UniProt Q14004); assay: NanoBRET live-cell target engagement, CDK13-NanoLuc/Cyclin K in HEK-293; type: binding; details: CDK13/K, read-out: Inhibition at 10µM (%)
[16] = target: CDK11B/Cyclin L2 (Homo sapiens, UniProt P21127); assay: NanoBRET live-cell target engagement, CDK11B-NanoLuc/Cyclin L2 in HEK-293; type: binding; details: CDK11b/L2, read-out: Inhibition at 10µM (%)
[17] = target: CDK20/Cyclin H (Homo sapiens, UniProt Q8IZL9); assay: NanoBRET live-cell target engagement, NanoLuc-CDK20/Cyclin H in HEK-293; type: binding; details: CDK20/H, read-out: Inhibition at 10µM (%)
[18] = target: CDK10/Cyclin L2 (Homo sapiens, UniProt Q15131); assay: NanoBRET live-cell target engagement, CDK10-NanoLuc/Cyclin L2 in HEK-293; details: read-out: Inhibition at 10µM (%), CDK10/L2
[19] = target: T1, CDK11A/Cyclin L2 (Homo sapiens, UniProt Q9UQ88); assay: NanoBRET live-cell target engagement, CDK11A-NanoLuc/Cyclin L2 in HEK-293; type: binding; details: CDK11a/L2, read-out: Inhibition at 10µM (%)
T1 sequence (Q9UQ88 1-783): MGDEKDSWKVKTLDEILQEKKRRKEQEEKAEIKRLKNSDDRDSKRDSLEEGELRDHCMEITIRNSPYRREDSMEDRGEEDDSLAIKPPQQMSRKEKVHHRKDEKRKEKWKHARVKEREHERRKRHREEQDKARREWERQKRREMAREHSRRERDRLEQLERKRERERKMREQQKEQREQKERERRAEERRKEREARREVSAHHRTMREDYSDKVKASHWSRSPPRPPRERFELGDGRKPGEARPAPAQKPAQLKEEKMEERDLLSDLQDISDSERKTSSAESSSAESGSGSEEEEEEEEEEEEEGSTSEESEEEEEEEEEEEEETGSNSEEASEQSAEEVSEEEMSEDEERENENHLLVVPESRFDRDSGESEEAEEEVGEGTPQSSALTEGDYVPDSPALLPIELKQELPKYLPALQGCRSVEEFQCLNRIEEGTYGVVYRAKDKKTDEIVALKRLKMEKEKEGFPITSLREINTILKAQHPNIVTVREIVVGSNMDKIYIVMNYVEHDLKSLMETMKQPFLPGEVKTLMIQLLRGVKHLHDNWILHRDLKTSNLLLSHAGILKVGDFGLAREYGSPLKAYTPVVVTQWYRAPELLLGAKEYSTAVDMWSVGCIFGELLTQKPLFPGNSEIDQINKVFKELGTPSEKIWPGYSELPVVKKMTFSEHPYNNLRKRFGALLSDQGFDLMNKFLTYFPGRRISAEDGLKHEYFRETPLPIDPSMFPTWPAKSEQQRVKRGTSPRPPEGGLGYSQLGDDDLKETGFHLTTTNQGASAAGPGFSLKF

Chain of CDK12/Cyclin K (Q9NYV4 1-1481 isoform Q9NYV4-2): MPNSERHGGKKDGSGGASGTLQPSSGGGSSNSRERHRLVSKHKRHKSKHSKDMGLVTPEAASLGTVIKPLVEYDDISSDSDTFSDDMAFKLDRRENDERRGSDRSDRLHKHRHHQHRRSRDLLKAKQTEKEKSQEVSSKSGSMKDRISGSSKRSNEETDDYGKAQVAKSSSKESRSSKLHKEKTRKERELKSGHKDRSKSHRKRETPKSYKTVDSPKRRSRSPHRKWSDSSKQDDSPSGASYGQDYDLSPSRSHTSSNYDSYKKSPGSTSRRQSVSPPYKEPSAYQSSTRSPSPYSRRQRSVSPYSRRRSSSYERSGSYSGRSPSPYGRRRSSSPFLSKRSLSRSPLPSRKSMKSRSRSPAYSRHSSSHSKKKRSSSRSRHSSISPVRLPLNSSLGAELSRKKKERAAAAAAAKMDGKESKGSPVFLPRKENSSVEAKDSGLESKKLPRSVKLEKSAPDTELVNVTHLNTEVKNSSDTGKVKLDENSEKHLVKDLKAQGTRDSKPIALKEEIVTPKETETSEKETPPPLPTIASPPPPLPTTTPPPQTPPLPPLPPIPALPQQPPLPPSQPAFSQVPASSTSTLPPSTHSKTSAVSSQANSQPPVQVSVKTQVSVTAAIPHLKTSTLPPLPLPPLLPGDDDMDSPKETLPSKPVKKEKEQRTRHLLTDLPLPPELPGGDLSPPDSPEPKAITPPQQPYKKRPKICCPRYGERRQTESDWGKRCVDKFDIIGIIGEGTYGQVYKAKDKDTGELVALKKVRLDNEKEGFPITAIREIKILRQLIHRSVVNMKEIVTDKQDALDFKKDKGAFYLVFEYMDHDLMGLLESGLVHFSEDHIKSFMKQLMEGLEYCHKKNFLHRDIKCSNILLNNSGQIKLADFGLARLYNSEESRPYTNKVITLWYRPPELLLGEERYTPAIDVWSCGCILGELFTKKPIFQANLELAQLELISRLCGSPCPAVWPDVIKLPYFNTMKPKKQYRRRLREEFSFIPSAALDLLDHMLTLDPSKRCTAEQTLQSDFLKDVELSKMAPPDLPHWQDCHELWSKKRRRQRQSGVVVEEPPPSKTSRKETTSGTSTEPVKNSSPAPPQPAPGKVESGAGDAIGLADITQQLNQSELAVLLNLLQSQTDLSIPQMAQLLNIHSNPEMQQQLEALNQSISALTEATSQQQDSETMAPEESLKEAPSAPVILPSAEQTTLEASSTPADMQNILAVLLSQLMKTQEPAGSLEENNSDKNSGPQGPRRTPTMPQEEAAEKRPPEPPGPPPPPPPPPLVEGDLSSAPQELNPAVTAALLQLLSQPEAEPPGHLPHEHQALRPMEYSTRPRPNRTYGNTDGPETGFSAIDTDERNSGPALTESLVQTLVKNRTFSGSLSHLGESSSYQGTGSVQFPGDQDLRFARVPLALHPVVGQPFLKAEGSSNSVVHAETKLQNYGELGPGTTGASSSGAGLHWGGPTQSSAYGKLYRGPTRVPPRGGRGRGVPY
Chain of CDK12/Cyclin K (O75909 whole entry partner): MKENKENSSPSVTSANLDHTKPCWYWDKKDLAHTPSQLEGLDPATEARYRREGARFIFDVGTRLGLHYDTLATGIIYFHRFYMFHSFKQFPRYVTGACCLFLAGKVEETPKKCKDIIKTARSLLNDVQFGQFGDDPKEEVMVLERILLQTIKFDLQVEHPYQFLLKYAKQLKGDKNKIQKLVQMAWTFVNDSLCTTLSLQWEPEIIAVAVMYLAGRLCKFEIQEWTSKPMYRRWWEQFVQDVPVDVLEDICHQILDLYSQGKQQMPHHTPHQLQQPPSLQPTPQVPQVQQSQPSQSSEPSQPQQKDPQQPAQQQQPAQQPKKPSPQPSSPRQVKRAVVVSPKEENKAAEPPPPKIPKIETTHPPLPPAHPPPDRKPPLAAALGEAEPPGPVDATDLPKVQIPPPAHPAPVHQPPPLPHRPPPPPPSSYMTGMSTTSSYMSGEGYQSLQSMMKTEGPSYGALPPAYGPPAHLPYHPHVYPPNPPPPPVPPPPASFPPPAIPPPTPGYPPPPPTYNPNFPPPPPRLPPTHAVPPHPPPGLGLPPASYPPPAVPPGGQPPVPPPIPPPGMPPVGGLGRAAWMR
Chain of CDK5/CDK5R1 (Q00535 whole entry): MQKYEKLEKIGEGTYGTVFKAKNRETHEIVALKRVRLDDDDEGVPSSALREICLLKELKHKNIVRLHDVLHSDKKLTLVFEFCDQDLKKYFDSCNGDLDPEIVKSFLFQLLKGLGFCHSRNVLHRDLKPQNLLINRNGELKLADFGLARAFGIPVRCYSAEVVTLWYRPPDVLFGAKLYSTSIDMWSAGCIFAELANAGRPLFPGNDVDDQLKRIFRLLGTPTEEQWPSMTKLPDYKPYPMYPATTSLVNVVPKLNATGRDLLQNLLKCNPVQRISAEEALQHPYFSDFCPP
Chain of CDK5/CDK5R1 (Q15078 whole entry partner): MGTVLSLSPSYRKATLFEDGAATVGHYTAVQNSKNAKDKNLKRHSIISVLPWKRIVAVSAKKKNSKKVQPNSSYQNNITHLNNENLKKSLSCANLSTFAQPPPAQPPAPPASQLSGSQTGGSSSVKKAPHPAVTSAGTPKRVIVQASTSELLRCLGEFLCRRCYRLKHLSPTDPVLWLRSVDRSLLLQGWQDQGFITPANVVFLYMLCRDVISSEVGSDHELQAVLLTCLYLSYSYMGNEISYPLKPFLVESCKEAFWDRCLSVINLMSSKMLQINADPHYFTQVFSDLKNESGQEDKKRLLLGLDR
Chain of CDK18/Cyclin Y (Q07002 whole entry): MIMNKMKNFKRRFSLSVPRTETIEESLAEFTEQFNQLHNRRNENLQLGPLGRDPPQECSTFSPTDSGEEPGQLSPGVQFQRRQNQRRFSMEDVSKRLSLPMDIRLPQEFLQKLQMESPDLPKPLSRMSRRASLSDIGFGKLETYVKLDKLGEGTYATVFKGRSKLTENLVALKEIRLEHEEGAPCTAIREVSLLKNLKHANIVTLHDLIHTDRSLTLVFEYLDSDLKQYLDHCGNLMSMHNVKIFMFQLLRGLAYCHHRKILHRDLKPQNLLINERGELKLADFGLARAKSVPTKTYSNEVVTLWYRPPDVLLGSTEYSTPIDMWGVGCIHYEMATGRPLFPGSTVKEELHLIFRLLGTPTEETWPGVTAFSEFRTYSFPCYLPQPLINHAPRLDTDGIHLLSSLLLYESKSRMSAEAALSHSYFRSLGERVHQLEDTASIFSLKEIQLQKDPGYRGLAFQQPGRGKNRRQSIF
Chain of CDK18/Cyclin Y (Q8ND76 whole entry partner): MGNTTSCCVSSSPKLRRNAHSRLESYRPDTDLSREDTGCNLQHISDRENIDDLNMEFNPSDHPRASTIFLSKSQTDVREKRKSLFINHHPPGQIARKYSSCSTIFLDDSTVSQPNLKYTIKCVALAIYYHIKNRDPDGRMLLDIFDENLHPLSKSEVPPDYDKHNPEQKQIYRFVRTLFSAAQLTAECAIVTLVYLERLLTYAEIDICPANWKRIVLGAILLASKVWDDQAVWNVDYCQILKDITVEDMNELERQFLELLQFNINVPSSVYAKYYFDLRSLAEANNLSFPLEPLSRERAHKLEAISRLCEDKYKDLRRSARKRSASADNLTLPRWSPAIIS
Chain of CDK8/Cyclin C (P49336 whole entry): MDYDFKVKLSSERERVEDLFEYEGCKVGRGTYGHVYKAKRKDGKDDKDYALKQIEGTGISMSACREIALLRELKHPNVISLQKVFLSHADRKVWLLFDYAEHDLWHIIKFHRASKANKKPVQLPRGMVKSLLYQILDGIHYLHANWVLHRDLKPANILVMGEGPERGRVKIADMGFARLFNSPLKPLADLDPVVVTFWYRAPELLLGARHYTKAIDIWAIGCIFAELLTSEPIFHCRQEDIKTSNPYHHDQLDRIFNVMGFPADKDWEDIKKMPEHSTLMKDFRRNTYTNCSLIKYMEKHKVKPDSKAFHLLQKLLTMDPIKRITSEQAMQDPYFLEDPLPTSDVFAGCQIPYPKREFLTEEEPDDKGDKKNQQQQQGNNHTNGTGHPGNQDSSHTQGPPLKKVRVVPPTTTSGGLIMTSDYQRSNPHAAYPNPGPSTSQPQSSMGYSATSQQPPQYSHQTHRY
Chain of CDK8/Cyclin C (P24863 whole entry partner): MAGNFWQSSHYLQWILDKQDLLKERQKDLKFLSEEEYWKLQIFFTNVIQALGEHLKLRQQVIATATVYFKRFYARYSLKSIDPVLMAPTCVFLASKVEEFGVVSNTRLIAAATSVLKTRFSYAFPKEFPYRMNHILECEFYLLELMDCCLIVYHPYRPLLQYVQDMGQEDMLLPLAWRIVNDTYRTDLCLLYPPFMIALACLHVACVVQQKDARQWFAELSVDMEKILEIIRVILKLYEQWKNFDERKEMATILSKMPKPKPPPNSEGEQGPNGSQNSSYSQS
Chain of CDK11B/Cyclin L2 (P21127 1-782 isoform P21127-2): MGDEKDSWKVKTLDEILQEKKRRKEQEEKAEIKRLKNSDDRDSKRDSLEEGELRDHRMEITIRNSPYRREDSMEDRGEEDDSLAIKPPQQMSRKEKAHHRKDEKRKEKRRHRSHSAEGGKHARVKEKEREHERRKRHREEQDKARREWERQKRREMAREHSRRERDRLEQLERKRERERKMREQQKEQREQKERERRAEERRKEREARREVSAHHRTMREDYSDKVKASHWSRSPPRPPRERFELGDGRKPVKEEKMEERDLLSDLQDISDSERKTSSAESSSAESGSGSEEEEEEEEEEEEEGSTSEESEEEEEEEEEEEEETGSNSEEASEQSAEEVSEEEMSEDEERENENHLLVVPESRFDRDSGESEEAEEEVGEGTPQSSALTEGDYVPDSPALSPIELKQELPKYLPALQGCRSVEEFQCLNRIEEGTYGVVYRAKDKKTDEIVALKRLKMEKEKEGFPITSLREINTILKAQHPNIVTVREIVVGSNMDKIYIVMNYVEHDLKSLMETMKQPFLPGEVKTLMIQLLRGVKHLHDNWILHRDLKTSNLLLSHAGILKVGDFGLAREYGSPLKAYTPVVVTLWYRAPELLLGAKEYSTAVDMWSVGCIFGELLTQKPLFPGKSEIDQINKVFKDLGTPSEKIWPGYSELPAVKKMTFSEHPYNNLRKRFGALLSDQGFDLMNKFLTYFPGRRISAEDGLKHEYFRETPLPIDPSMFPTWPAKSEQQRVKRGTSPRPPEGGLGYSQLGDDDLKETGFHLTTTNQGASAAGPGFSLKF

In the case of CNC(=O)c1nn(C)c2c1C(C)(C)Cc1cnc(Nc3ccc(N4CCN(C)CC4)cc3)nc1-2 [Milciclib], the inhibition at 10 µM ([1]; average) is reported as 87.8%, the inhibition at 10 µM ([1]; experiment 1) is reported as 86.7% and the inhibition at 10 µM ([1]; experiment 2) is reported as 88.9%. It also gave an inhibition at 10 µM ([2]; average) of 82.1%, an inhibition at 10 µM ([2]; experiment 1) of 77.8% and an inhibition at 10 µM ([2]; experiment 2) of 86.4%. For the same molecule, the IC50 ([3]; CDK6/D1, average (± SEM where n=3), read-out: IC50) was 110 ± 20 nM, the inhibition at 10 µM ([3]; CDK6/D1, average) was 96.3% and the IC50 ([3]; CDK6/D1, experiment 1, read-out: IC50) was 110 nM. For the same molecule, the inhibition at 10 µM ([3]; CDK6/D1, experiment 1) was 96.1%, the IC50 ([3]; CDK6/D1, experiment 2, read-out: IC50) was 83 nM and the inhibition at 10 µM ([3]; CDK6/D1, experiment 2) was 96.5%. For the same molecule, the IC50 ([3]; CDK6/D1, experiment 3, read-out: IC50) was 144 nM, the IC50 ([3]; live HEK-293, 2 h, mean ± S.E.M. (n=3) or mean (n=2), read-out: IC50 for CDK/cyclin complexes, CDK6/D1) was 110 ± 20 nM and the inhibition at 10 µM ([4]; average) was 19.2%. It also gave an inhibition at 10 µM ([4]; experiment 1) of 44.9%, an inhibition at 10 µM ([4]; experiment 2) of -6.6% and an inhibition at 10 µM ([5]; average) of 16%. It also gave an inhibition at 10 µM ([5]; experiment 1) of 44.2%, an inhibition at 10 µM ([5]; experiment 2) of -12.1% and an inhibition at 10 µM ([6]; CDK12/K, experiment 1, read-out: Inhibition at 10µM (%)) of 16.8%. The inhibition at 10 µM ([6]; CDK12/K, experiment 2, read-out: Inhibition at 10µM (%)) was 10.6%, the inhibition at 10 µM ([6]; read-out: Inhibition at 10µM (%), CDK12/K, average) was 13.7% and the IC50 ([7]; average (± SEM where n=3)) was 300 ± 40 nM. The IC50 ([7]; experiment 1) was 383 nM, the inhibition at 10 µM ([7]; experiment 1) was 86.4% and the IC50 ([7]; experiment 2) was 260 nM. For the same molecule, the inhibition at 10 µM ([7]; experiment 2) was 90.1%, the IC50 ([7]; experiment 3) was 273 nM and the inhibition at 10 µM ([8]; average) was 74.3%. It also gave an inhibition at 10 µM ([8]; experiment 1) of 71.9%, an inhibition at 10 µM ([8]; experiment 2) of 76.8% and an inhibition at 10 µM ([9]; average) of 55.3%. It also gave an inhibition at 10 µM ([9]; experiment 1) of 50.1%, an inhibition at 10 µM ([9]; experiment 2) of 60.5% and an inhibition at 10 µM ([10]; average) of 61.1%. It also gave an inhibition at 10 µM ([10]; experiment 1) of 52.9%, an inhibition at 10 µM ([10]; experiment 2) of 69.2% and an inhibition at 10 µM ([11]; average) of 98.1%. The inhibition at 10 µM ([11]; experiment 1) was 98.8%, the inhibition at 10 µM ([11]; experiment 2) was 97.4% and the inhibition at 10 µM ([12]; average) was 84.2%. For the same molecule, the inhibition at 10 µM ([12]; experiment 1) was 83.1%, the inhibition at 10 µM ([12]; experiment 2) was 85.3% and the IC50 ([13]; average (± SEM where n=3)) was 880 ± 60 nM. For the same molecule, the inhibition at 10 µM ([13]; average) was 86%, the IC50 ([13]; experiment 1) was 970 nM and the inhibition at 10 µM ([13]; experiment 1) was 83.8%. It also gave an IC50 ([13]; experiment 2) of 898 nM, an inhibition at 10 µM ([13]; experiment 2) of 88.1% and an IC50 ([13]; experiment 3) of 778 nM. The inhibition at 10 µM ([14]; average) was 76.6%, the inhibition at 10 µM ([14]; experiment 1) was 75.5% and the inhibition at 10 µM ([14]; experiment 2) was 77.7%. For the same molecule, the inhibition at 10 µM ([15]; average) was 13.7%, the inhibition at 10 µM ([15]; experiment 1) was 15% and the inhibition at 10 µM ([15]; experiment 2) was 12.5%. The inhibition at 10 µM ([16]; average) was 14.4%, the inhibition at 10 µM ([16]; experiment 1) was 14.6% and the inhibition at 10 µM ([16]; experiment 2) was 14.3%. For the same molecule, the inhibition at 10 µM ([17]; experiment 1) was 50.1%, the inhibition at 10 µM ([17]; experiment 2) was 36.3% and the inhibition at 10 µM ([18]; average) was 30.6%. For the same molecule, the inhibition at 10 µM ([18]; experiment 1) was 32.3%, the inhibition at 10 µM ([18]; experiment 2) was 28.9% and the inhibition at 10 µM ([19]; average) was 22.7%. The inhibition at 10 µM ([19]; experiment 1) was 20.3% and the inhibition at 10 µM ([19]; experiment 2) was 25%.
